Article PMC11239005, “Preclinical studies of RA475, a guanidine-substituted spirocyclic candidate RPN13/ADRM1 inhibitor for treatment of ovarian cancer” (PLOS ONE, 2024)
Where “and” joins values, the source holds several entries; their conditions need not be identical. Equal entries are not always repeated. Structures can show the parent of a compound that is named as a salt.

How the values were obtained:
[1] = LogD measurement, shake-flask octanol/PBS pH 7.4; type: physicochemical; conditions: octanol/PBS pH 7.4, single injections 1-3
Description: Incubations were carried out in Eppendorf-type polypropylene microtubes in triplicates. A 2.5 μL aliquot of 20 mM DMSO stock of a test compound was added into the previously mutually saturated mixture containing 500 μL of PBS (pH 7.4) and 500 μL of octanol. The solution was allowed to mix in a rotator for 1 hour at 30 rpm. Phase separation was assured by centrifugation for 2 min at 6000 rpm. The octanol phase was diluted 100-fold with 40% acetonitrile, and the aqueous phase (PBS buffer) was diluted 10-fold. The samples (both phases) were analyzed using an HPLC system coupled with a tandem mass spectrometer. […] Calculations of the partition ratios were carried out using the equation below. D=do.So/dp.Sp where:
So–peak area of the analyte in octanol phase
SP–peak area of the analyte in PBS buffer
do–dilution coefficient for octanol phase

PEA1 cells = experiment: MTT cytotoxicity assay, PEA1; type: cell-based, human; conditions: Homo sapiens, PEA1, 72 h
Description: (§1) All cell lines were obtained from the American Type Culture Collection (ATCC) and cultured in the specified medium supplemented with 10% fetal bovine serum, 100 IU/mL penicillin, and 100 μg/mL streptomycin at 37°C in a humidified 5% CO2/95% air incubator. Synthesis of new compounds is described in S1 File, and >95% purity of RA475, Up284 and its analogs were confirmed by NMR and MS. To assess drug cytotoxicity, cells were seeded at 2,500 cells/well (10,000 cells/well for MM lines) in 100 μL medium in 96-well plate as triplicates and after 24 h treated with compounds for a further 72 h. To assess cytotoxicity, the cells were incubated for 2 h at 37°C according to the manufacturer’s protocol with the Thiazolyl Blue Tetrazolium Bromide (20 μL/well of 5 mg/mL stock solution in water) (Sigma, M5655) and A570 measured using a Benchmark Plus microplate spectrophotometer (BIO-RAD). IC50 was estimated using Graphpad Prism 7 software.
(§2) Modifications of Up284 were sought to improve its drug-like properties without significant compromise of its activity in vivo, and several new compounds were synthesized (S1 File). Based on our prior studies of its pharmacophore, the central ring nitrogen was the most logical for addition of charged moieties, including RA475 and RA484. We also examined a change to either 3,4 spiro rings (RA477, RA479), or addition of 3-Fluoro substitutions (RA482) (S1 File). Our focus is developing iRPN13 to treat ovarian cancer resistant to standard of care drug regimens.
A wash-out experiment was performed to assess reversibility of the toxicity. PEA1 cells were treated with RA475 for 1 h before the medium was replaced with fresh culture medium, and the cells were then allowed to grow for another 71 hours (PEA1-WO). In parallel, PEA1 cells were incubated with RA475 continuously for 72 h. […] Possible reasons include slow uptake of RA475, reversible binding and neutralization by antioxidants in the medium.
To study the effect of RA475 in combination with approved therapeutics (DNA damaging agents or radiation) an MTT assay was performed using various concentrations of both drugs. Briefly PEA1 and OVCAR3 cells were each treated with drug combination (RA475 plus cisplatin) for 72 h in a checker board analysis and cell viability was measured using MTT assay. The data were analyzed and plotted using the Synergy Finder web application.

PEA2 = experiment: MTT cytotoxicity assay, PEA2; type: cell-based; conditions: Homo sapiens; PEA2, 72 h, MTT; read-out: IC50
Description: as §1, §2

[2] = system: high molecular weight polyubiquitinated proteins in OVCAR3 cells; experiment: Anti-ubiquitin immunoblot, OVCAR3; type: cell-based, human; conditions: Up284 0.5 μM, bortezomib 0.25 μM, ixazomib 0.25 μM, RA475 0.5 or 1 μM
Text: (§3) Cell lysate prepared in MPER (Pierce) from each sample was normalized by total protein concentration using the bicinchoninic acid assay and bovine serum albumin standards. Normalized samples were subjected to SDS-PAGE, transferred to PVDF membranes and analyzed by Western blot using antibodies specific to ubiquitin (P4D1, sc-8017, Santa Cruz), PARP (#9542, […]), actin (#66009, Protein Tech Group), Tubulin(#66031, Protein Tech Group), ADRM1/RPN13 (D9Z1U, #12019, Cell Signaling), USP14 (Cell Signal, # 8159), Annexin V (#559763, BD Pharmingen), and for secondary antibodies we utilized either horseradish peroxidase (HRP)-linked anti-mouse IgG or anti-rabbit IgG (GE Healthcare UK Ltd), HRP-linked streptavidin (N100, Thermo Fisher) at the recommended dilution (1:5000).
(§4) Accumulation of high molecular weight polyubiquitinated proteins (polyUb) is a classical phenomenon of proteasome function inhibition due to the stabilization of its substrate.
(§5) Fig 3 Impact of RA475 on proteasome function. […] Actin was used as loading control. […] C) 4T1 and HCC1806 cells stably expressing 4UbFL were treated with compounds at indicated doses for 4 h and imaged by IVIS200 after the addition of luciferin substrate (50 μL, 7mg/mL in PBS). D) Sub-confluent cultures of ES2 cells stably expressing 4UbFL were seeded at 10,000 cells/well in 96-well microtiter plates. At 18 h post transfection, cells were treated with compounds or vehicle (DMSO) at the doses indicated. After a 4 h incubation, the cells were lysed and the luciferase activity in each cell lysate was determined with a luciferase assay kit (Promega) according to the manufacturer’s instructions. Bioluminescence was measured by using a luminometer (Glomax Multidetection system, Promega) E) A patch was shaved of hair on one leg of CD-1 mice, and 10 μg 4UbFL plasmid in 20 μL of PBS was injected into the quadriceps femoralis muscle followed immediately by injection of the 2 Needle Array to 5 mm depth encompassing the injection site and square wave electroporation (ElectroSquarePorator 833, BTX-2 Needle array 5mm gap, Harvard apparatus) delivered as eight pulses at 106V for 20 ms with 200 ms intervals. One day post electroporation, mice were anesthetized with isoflurane, injected IP with luciferin (0.3 mg in 100 μL water) and optical imaging was performed to determine basal level luciferase expression. Images were acquired for 10 min with a Xenogen IVIS 200 (Caliper, Hopkinton, MA). Equally sized areas were analyzed using Living Image 2.20 software. Mice were imaged weekly during treatment. […]

MDA-MB-468 cells = experiment: Surface Annexin V display by flow cytometry, MDA-MB-468; type: cell-based; conditions: MDA-MB-468, 12 h; RA475 1 or 2 μM, ixazomib 1 μM
Description: The percentage of cells initiating apoptosis was assessed with the annexin V FITC assay kit. The cells (2 × 10^5 cells/well) were treated with the described compounds at selected concentrations for 12 h or 16 h, as indicated. The cells were then collected, washed with PBS, resuspended in 100 μL of annexin V-FITC and 7-AAD dual-stain solution (3 μL Annexin V and 3 μL 7AAD, Catalog Number; 559763-BD bioscience), and incubated 20 min in the dark. The samples were then analyzed via flow cytometry using FlowJo V10 software. All experiments were repeated three times.
Supplementary file pone.0305710.s006.tif: S6 Fig RA475 induced apoptosis in a triple negative breast cancer cell line. […] (TIF)

[3] = cited from earlier work
[4] = human and mouse microsomes; cited from earlier work
[5] = system: high molecular weight polyubiquitinated proteins in SKOV3 cells; experiment: Anti-ubiquitin immunoblot, SKOV3; type: cell-based; conditions: Up284 and RA475 0.5 and 1 μM, RA190 1 μM
Text: as §3, §4
as §5, with “D) Sub-confluent cultures of ES2 cells stably expressing 4UbFL were seeded at 10,000 cells/well in 96-well microtiter plates. At 18 h post transfection, cells were treated with compounds or vehicle (DMSO) at the doses indicated.” left out, “One day post electroporation, mice were anesthetized with isoflurane, injected IP with luciferin (0.3 mg in 100 μL water) and optical imaging was performed to determine basal level luciferase expression. Images were acquired for 10 min with a Xenogen IVIS 200 (Caliper, Hopkinton, MA).” left out, “software.” for “software. Mice were imaged weekly during treatment.”

[6] = system: spontaneous genetically-engineered peritoneal tumor (shp53, AKT, c-Myc); experiment: Spontaneous GEMM of primary peritoneal/ovarian cancer; type: in vivo, mouse; conditions: C57BL/6; RA475 40 mg/kg IP every 3 days (12 doses); cisplatin 5 mg/Kg weekly (5 doses alone, 3 in combination)
Description: To induce IP tumor formation in immunocompetent mice, oncogenes (shp53, AKT, c-Myc), luciferase and the Sleeping Beauty (SB) transposase (10 μg/plasmid) were diluted in 500 μL of PBS and injected IP into female C57BL/6 mice. The mice were anesthetized by intramuscular injection of 50–100μL of a cocktail of ketamine 16 mg/mL / 3 mg/mL xylazine. The plasmid-injected mice were electroporated (EP) by the BTX ECM 830 square wave EP generator (BTX) (5 pulses, 200 V for 100 ms/pulse, 100 ms intervals between each pulse) with the caliper electrode (BTX) held across the waist of mouse. The mice were followed by IVIS imaging weekly for tracking tumor growth. The mice were sacrificed when the bioluminescence signal reached 10^9 photons/sec/cm^2/sr, or had enlarged abdomens due to the production of ascites, or had health conditions and/or criteria under which early euthanasia was required by the protocol. To track peritoneal tumor growth, bioluminescence imaging was performed by the IVIS Spectrum2000 (PerkinElmer) as the plasmid expressing SB transposase also produces luciferase. Briefly, the mice were injected IP with D-luciferin (GoldBio). After 10 min, the mice were anesthetized with isoflurane, and imaged by the IVIS Spectrum under the auto exposure mode. Bioluminescence in the peritoneal region was quantified as total photon counts/sec/cm^2/sr using Living Image 3.0 Software (Perkin Elmer).
GEMM better mimic the spontaneous development of cancers in an immune competent host than transplantable tumor lines. Female C57BL/6 mice were co-injected IP with sleeping beauty vector and plasmids expressing carrying shp53, AKT, c-Myc and firefly luciferase genes, followed by electroporation (EP) to deliver these plasmid DNA into the peritoneal cavity cells wherein they integrate randomly into their genome. After 7 days mice were imaged by IVIS200 for bioluminescence and randomized. Four groups (n = 8) were treated IP with vehicle or RA475 (40mg/kg, IP, every 3 days) or Cisplatin (5 mg/Kg, once a week) or the combination of RA475 (40mg/Kg, IP, every 3 days) plus Cisplatin (5 mg/Kg, once a week). […] While cisplatin reduced tumor growth, it led to severe toxicity including weight loss >20% that was not evident with RA475 alone.
Fig 7 Administration of RA475, cisplatin or the combination to mice bearing spontaneous, genetically-engineered model ovarian/peritoneal cancer. Female C57BL/6 mice were co-injected IP with sleeping beauty vector and plasmids expressing carrying shp53, AKT, c-Myc and firefly luciferase genes, followed by electroporation (EP) to deliver these plasmid DNA into the peritoneal cavity cells wherein they integrate randomly into their genome. After 7 days mice were imaged by Xenogen IVIS200 for bioluminescence and randomized. […]

SMILES	IC50 (PEA1 cells)	IC50 (PEA2)	further results
COC(=O)Nc1nc2ccc(C(=O)c3ccccc3)cc2[nH]1 [Mebendazole]			D [1]: 8.61E+02 and 8.97E+02 and 8.85E+02
N#Cc1ccc(/C=C2/C(=O)/C(=C/c3ccc(C#N)cc3)C23CCN(C(=N)N)C3)cc1 [RA477, 1,3-bis((E)-4-cyanobenzylidene)-2-oxo-6-azaspiro[3.4]octane-6-carboximidamide dihydrochloride]	331 nM	312 nM	
N#Cc1ccc(/C=C2/C(=O)/C(=C/c3ccc(C#N)cc3)C23CCN(C(=N)N2CCOCC2)CC3)cc1 [RA484, 4,4'-((1E,1'E)-(7-(imino(morpholino)methyl)-2-oxo-7-azaspiro[3.5]nonane-1,3-diylidene)bis(methaneylylidene))dibenzonitrile]	479 nM	522 nM	
N#Cc1ccc(/C=C2/C(=O)/C(=C/c3ccc(C#N)c(F)c3)C23CCN(C(=N)N)C3)cc1F [RA479, 1,3-bis((E)-4-cyano-3-fluorobenzylidene)-2-oxo-6-azaspiro[3.4]octane-6-carboximidamide dihydrochloride]	350 nM	320 nM	
CC(C)C[C@H](NC(=O)CNC(=O)c1cc(Cl)ccc1Cl)B(O)O [ixazomib]			forms of polyUb induced [2]: only induced the smaller poly Ub forms, typically <250kDa; apoptosis by surface Annexin V display (MDA-MB-468 cells): initiated apoptosis; access to the brain [3]: mostly excluded from the brain
Cl.N[C@@H](Cc1ccccc1)C(=O)N1C/C(=C/c2ccc(Cl)c(Cl)c2)C(=O)/C(=C\c2ccc(Cl)c(Cl)c2)C1 [RA190]			breakdown in microsomes compared with RA475 [4]: more rapidly broken down; accumulation of high molecular weight polyubiquitinated proteins [5]: robust accumulation of polyUb
N#Cc1ccc(/C=C2/C(=O)/C(=C/c3ccc(C#N)c(F)c3)C23CCN(C(=N)N)CC3)cc1F [RA482, 1,3-bis((E)-4-cyano-3-fluorobenzylidene)-2-oxo-7-azaspiro[3.5]nonane-7-carboximidamide dihydrochloride]	396 nM	410 nM	
CC(C)C[C@H](NC(=O)[C@H](CCc1ccccc1)NC(=O)CN1CCOCC1)C(=O)N[C@@H](Cc1ccccc1)C(=O)N[C@@H](CC(C)C)C(=O)[C@@]1(C)CO1 [Carfilzomib, carfilzomib]			access to the brain [3]: mostly excluded from the brain
N.N.[Cl][Pt][Cl] [cisplatin, reference compound]			tumor burden by bioluminescence [6]: significantly better delayed, but did not reduce, tumor burden
